We go through two sequences from PMC10541502 (Science Advances, 2023).

Ends that are not written are not given here.

The data set relates to C57BL/6 mice. The settings on record: mouse.

MSPSILKHWSRQGGGKKLLGLLLKLKLK [F6P6]: the “In vivo toxicity, overall finding” value is “did not induce primary toxic irritation”.

For the sequence MSPSILKHWSRQGGGKLKKLLLGLLLKK [F6P1], the “In vivo toxicity, overall finding” value is recorded as “did not induce primary toxic irritation”.
